According to patent US20250144054A1, “SMALL MOLECULE STAT3 INHIBITOR FOR TREATING TRIPLE NEGATIVE BREAST CANCER” (UNIVERSITY OF MARYLAND, BALTIMORE, priority 2022, published 2025):

Test system: MDA-MB-231 orthotopic tumor
Experiment: Orthotopic mammary fat pad tumor model in vivo
Design: species or system athymic nude mice
Protocol: Orthotopic mammary fat pad tumor model in vivo. All mice were used under guidelines approved by the IACUC of University of Maryland School of Medicine. 6-week-old female athymic nude mice were purchased from The Jackson Laboratory (Bar Harbor, ME, USA). 2.5×10^6 MDA-MB-231 cells in 50 μl matrigel (BD Science, Franklin Lakes, NJ, USA) were inoculated into the 4th mammary fat pads bilaterally. After the tumor volume reached approximately 50 mm^3, mice were randomly divided into two groups (3 mice with 6 tumors in each group). LLL12B (2.5 mg/kg) or DMSO vehicle was administered daily by oral gavage for 28 days. Tumor size was measured by the length (L) and width (W) using a caliper ruler every 2 days. Tumor volume was calculated using 0.52×L×W^2. Body weight was monitored every 2 days. At the end of the experiment, tumors were removed and weighed. Part of the tumor tissue was lysed to detect the expression of P-STAT3 (Y705), STAT3, and Cyclin DI using Western blot analysis.
Female nude mice were implanted with MDA-MB-231 cells to establish an orthotopic tumor model to further evaluate LLL12B efficacy in vivo. MDA-MB-231 cells were inoculated into the 4th mammary fat pads and tumors were allowed to develop until the volume reached approximately 50 mm^3. Vehicle control or LLL12B (2.5 mg/kg) was administered once daily by oral gavage for 28 days.

[1] = 2.5 mg/kg once daily oral gavage 28 days, vs vehicle
[2] = Western blot, 2.5 mg/kg oral 28 days

CN(C)C(=O)Oc1cccc2c1C(=O)c1cccc(S(N)(=O)=O)c1C2=O [LLL12B]
body weights [1]: no obvious reduction | tumor volume [1]: significantly reduced | tumor weight [1]: reduced | Cyclin D1 expression in tumor tissues [2]: suppressed | phosphorylation of STAT3 (Y705) in tumor tissues [2]: suppressed
